Tests used:
[1] = tested on: pigweed; test: Test A preemergence; type: in vivo, Amaranthus retroflexus; conditions: Amaranthus retroflexus, pre-emergence, 240 h, read-out: Pigweed plant response rating
Method in brief: (§1)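 Compounds in non-phytotoxic solvent with surfactant applied as soil spray preemergence, or postemergence to plants 2-10 cm at one- to two-leaf stage, in loam/sand. After approximately 10 days in greenhouse, injury rated visually versus untreated controls, 0 (no effect) to 100 (complete control).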

[2] = tested on: giant foxtail; test: Test A preemergence; type: in vivo, Setaria faberii; conditions: Setaria faberi, pre-emergence, 240 h, read-out: Foxtail, Giant plant response rating
Method in brief: as §1

[3] = tested on: Italian ryegrass; test: Test C postemergence; type: in vivo, Lolium multiflorum; conditions: Lolium multiflorum, post-emergence
Method in brief: (§2)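 Seeds were sown in loam–sand blend and sprayed preemergence, while plants at 1- to 4-leaf stage (2–18 cm) in peat-based medium received postemergence sprays; test chemicals were formulated in a non-phytotoxic solvent with surfactant. After 13–15 days in a greenhouse, injury was rated visually against controls, 0 (no effect) to 100 (complete control).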

[4] = tested on: yellow nutsedge; test: Test C postemergence; type: in vivo, Cyperus esculentus; conditions: Cyperus, post-emergence
Description: (§3) Seeds of plant species selected from blackgrass (Alopecurus myosuroides), Italian ryegrass (Lolium multiflorum), wheat, winter (winter wheat, Triticum aestivum), galium (catchweed bedstraw, Galium aparine), corn (Zea mays), large (Lg) crabgrass (Digitaria sanguinalis), giant foxtail (Setaria faberii), johnsongrass (Sorghum halepense), lambsquarters (Chenopodium album), morningglory (Ipomoea coccinea), yellow nutsedge (Cyperus esculentus), pigweed (Amaranthus retroflexus), ragweed (common ragweed, Ambrosia elatior), soybean (Glycine max), barnyardgrass (Echinochloa crus-galli), oilseed rape (Brassica napus), waterhemp (common waterhemp, Amaranthus rudis), kochia (Kochia scoparia), wild oat (Avena fatua), surinam grass (Brachiaria decumbens), foxtail, green (green foxtail, Setaria viridis), goosegrass (Eleusine indica), bromegrass, downy (downy bromegrass, Bromus tectorum), nightshade (eastern black nightshade, Solanum ptycanthum), cocklebur (common cocklebur, Xanthium strumarium), cupgrass, woolly (woolly cupgrass, Eriochloa villosa), bermudagrass (Cynodon dactylon), sunflower, (common oilseed sunflower, Helianthus annuus), Russian thistle (Salsola kali), and velvetleaf (Abutilon theophrasti) were planted into a blend of loam soil and sand and treated preemergence with test chemicals formulated in a non-phytotoxic solvent mixture which included a surfactant.
(§4) At the same time, plants selected from these crop and weed species and also barley, winter (winter barley, Hordeum vulgare), windgrass (Apera spica-venti), chickweed (common chickweed, Stellaria media), deadnettle (henbit deadnettle, Lamium amplexicaule), and canarygrass (littleseed canarygrass, Phalaris minor) were planted in pots containing Redi-Earth® planting medium (Scotts Company, 14111 Scottslawn Road, Marysville, Ohio 43041) comprising spaghnum peat moss, vermiculite, wetting agent and starter nutrients and treated with postemergence applications of test chemicals formulated in the same manner. Plants ranged in height from 2 to 18 cm (1- to 4-leaf stage) for postemergence treatments. Treated plants and controls were maintained in a greenhouse for 13 to 15 days, after which time all species were compared to controls and visually evaluated. Plant response ratings, summarized in Table C, are based on a scale of 0 to 100 where 0 is no effect and 100 is complete control. A dash (-) response means no test result.

[5] = tested on: velvetleaf; test: Test A postemergence; type: in vivo, Abutilon theophrasti; conditions: Abutilon theophrasti, post-emergence, 240 h
Method in brief: as §1

[6] = tested on: kochia; test: Test C postemergence; type: in vivo, Kochia scoparia; conditions: Bassia scoparia, post-emergence
Method in brief: as §2

[7] = tested on: galium; test: Test C postemergence; type: in vivo, Galium aparine; conditions: Galium, post-emergence
Description: as §3, §4

[8] = tested on: wheat, winter; test: Test C postemergence; type: in vivo, Triticum aestivum; conditions: Triticum aestivum, post-emergence
Description: as §3, §4

[9] = tested on: rice; test: Test B flooded paddy test; type: in vivo, Oryza sativa; conditions: Oryza sativa; Flood, 250 g ai/ha; 0 to 100 scale where 0 is no effect and 100 is complete control; read-out: Plant response rating, Rice
Method in brief: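 Plants at 2-leaf stage; pots flooded to 3 cm above soil and compound applied directly into paddy water, depth held throughout. After 13 to 15 days in greenhouse, visual rating versus controls on 0 (no effect) to 100 (complete control) scale.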

[10] = tested on: corn; test: Test C postemergence; type: in vivo, Zea mays; conditions: Zea mays, post-emergence
Description: as §3, §4

[11] = 125 g ai/ha, 0 to 100 scale where 0 is no effect and 100 is complete control
[12] = 500 g ai/ha, 0 to 100 scale, 0 no effect, 100 complete control, approx. 10 days

Fc1cnc(Oc2ccccc2-n2cc(Br)cn2)nc1 [Compound 10, 2-[2-(4-bromo-1H-pyrazol-1-yl)phenoxy]-5-fluoropyrimidine]
pest or weed control at 125 g/ha [1, 11]: 100%
pest or weed control at 500 g/ha [1, 12]: 100%
pest or weed control at 125 g/ha [2, 11]: 90%
pest or weed control at 500 g/ha [2, 12]: 100%
pest or weed control at 125 g/ha ([3]; 125 g ai/ha, postemergence, read-out: Plant response rating (0 to 100), Ryegrass, Italian): 5%
pest or weed control at 250 g/ha ([3]; 250 g ai/ha, postemergence, read-out: Plant response rating (0 to 100), Ryegrass, Italian): 10%
pest or weed control at 31 g/ha ([3]; Postemergence, 31 g ai/ha, scale 0 to 100 (0 no effect, 100 complete control), 13 to 15 days, read-out: Plant response rating, Ryegrass, Italian): 0%
pest or weed control at 62 g/ha ([3]; Postemergence, 62 g ai/ha, scale 0 to 100 (0 no effect, 100 complete control), read-out: Plant response rating, Ryegrass, Italian): 0%
pest or weed control at 125 g/ha ([4]; 125 g ai/ha, postemergence, read-out: Plant response rating (0 to 100), Nutsedge, Yellow): 5%
pest or weed control at 250 g/ha ([4]; 250 g ai/ha, postemergence, read-out: Plant response rating (0 to 100), Nutsedge, Yellow): 5%
pest or weed control at 31 g/ha ([4]; Postemergence, 31 g ai/ha, scale 0 to 100 (0 no effect, 100 complete control), 13 to 15 days, read-out: Plant response rating, Nutsedge, Yellow): 0%
pest or weed control at 62 g/ha ([4]; Postemergence, 62 g ai/ha, scale 0 to 100 (0 no effect, 100 complete control), read-out: Plant response rating, Nutsedge, Yellow): 5%
pest or weed control at 125 g/ha ([5]; 125 g ai/ha, 0 to 100 scale where 0 is no effect and 100 is complete control, read-out: Plant response rating, Velvetleaf): 100%
pest or weed control at 500 g/ha ([5]; 500 g ai/ha, 0 to 100 scale, 0 no effect, 100 complete control, read-out: Plant response rating Velvetleaf): 100%
pest or weed control at 125 g/ha ([6]; 125 g ai/ha, postemergence, read-out: Plant response rating (0 to 100), Kochia): 95%
pest or weed control at 250 g/ha ([6]; 250 g ai/ha, postemergence, read-out: Plant response rating (0 to 100), Kochia): 98%
pest or weed control at 31 g/ha ([6]; Postemergence, 31 g ai/ha, scale 0 to 100 (0 no effect, 100 complete control), 13 to 15 days, read-out: Plant response rating, Kochia): 20%
pest or weed control at 62 g/ha ([6]; Postemergence, 62 g ai/ha, scale 0 to 100 (0 no effect, 100 complete control), read-out: Plant response rating, Kochia): 40%
pest or weed control at 125 g/ha ([7]; 125 g ai/ha, postemergence, read-out: Plant response rating (0 to 100), Galium): 80%
pest or weed control at 250 g/ha ([7]; 250 g ai/ha, postemergence, read-out: Plant response rating (0 to 100), Galium): 95%
pest or weed control at 31 g/ha ([7]; Postemergence, 31 g ai/ha, scale 0 to 100 (0 no effect, 100 complete control), 13 to 15 days, read-out: Plant response rating, Galium): 65%
pest or weed control at 62 g/ha ([7]; Postemergence, 62 g ai/ha, scale 0 to 100 (0 no effect, 100 complete control), read-out: Plant response rating, Galium): 80%
plant injury at 125 g/ha ([8]; 125 g ai/ha, postemergence, read-out: Plant response rating (0 to 100), Wheat): 5%
plant injury at 250 g/ha ([8]; 250 g ai/ha, postemergence, read-out: Plant response rating (0 to 100), Wheat): 10%
plant injury at 31 g/ha ([8]; Postemergence, 31 g ai/ha, scale 0 to 100 (0 no effect, 100 complete control), 13 to 15 days, read-out: Plant response rating, Wheat): 5%
plant injury at 62 g/ha ([8]; Postemergence, 62 g ai/ha, scale 0 to 100 (0 no effect, 100 complete control), read-out: Plant response rating, Wheat): 5%
plant injury at 250 g/ha [9]: 0%
plant injury at 125 g/ha ([10]; 125 g ai/ha, postemergence, read-out: Plant response rating (0 to 100), Corn): 5%
plant injury at 250 g/ha ([10]; 250 g ai/ha, postemergence, read-out: Plant response rating (0 to 100), Corn): 20%
Corn plant response rating (crop injury, 0 = no effect, 100 = complete kill) at 31 g/ha ([10]; Postemergence, 31 g ai/ha, scale 0 to 100 (0 no effect, 100 complete control), 13 to 15 days): 5%
Corn plant response rating (crop injury, 0 = no effect, 100 = complete kill) at 62 g/ha ([10]; Postemergence, 62 g ai/ha, scale 0 to 100 (0 no effect, 100 complete control)): 5%

Reference: patent publication US9695155B2, “Herbicidal substituted pyrimidinyloxy benzene compounds” (E. I. DU PONT DE NEMOURS AND COMPANY, priority 2013, dated 2017)
